Assays:
[1] = biological target: T1, Avi-KRAS G12R (1-169) GppNHp/RAF1 RBD-3xFLAG (52-151) (Homo sapiens, UniProt P01116, G12R); experiment: Raf1-KRAS G12R-GppNHP disruption HTRF assay (Biological Example 1); assay type: binding
T1 construct: Avi-KRAS G12R (1-169)
Method in brief: (§1)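 Measured with a KRAS/RAF1 HTRF assay at pH 7.5 in 10% DMSO, with two 1 h room-temperature incubations with shaking.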

[2] = biological target: T2, Avi-KRAS G12D (1-169) GppNHp/RAF1 RBD-3xFLAG (52-151) (Homo sapiens, UniProt P01116, G12D); experiment: Raf1-KRAS G12D-GppNHP disruption HTRF assay (Biological Example 1); assay type: binding
T2 construct: Avi-KRAS G12D (1-169)
Method in brief: as §1

GP2d cells (KRAS G12D) = experiment: Cell-based pERK HTRF assay in GP2d cell (Biological Example 2); details: GP2d (KRAS G12D) cells, pERK HTRF
Method in brief: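 60 min compound, 0.25% DMSO, 9-pt half-log curve from 1 μM or 100 nM; DMEM/10% FBS.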

[3] = biological target: T3, Avi-KRAS WT (1-169) GppNHp/RAF1 RBD-3xFLAG (52-151) (Homo sapiens, UniProt P01116); experiment: Raf1-KRAS WT-GppNHP disruption HTRF assay (Biological Example 1); assay type: binding
T3 construct: Avi-KRAS WT (1-169)
Method in brief: as §1

SW620 cells (KRAS G12V) = experiment: Cell-based pERK HTRF assay in SW620 cell (Biological Example 4); details: pERK HTRF
Method in brief: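 This assay measures inhibition of ERK phosphorylation downstream of KRAS G12V in intact SW620 cells. Compounds are applied for 4 h over nine half-log concentrations starting at 1 μM, and pERK is quantified by HTRF.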

[4] = biological target: T4, Avi-KRAS G12V (1-169) GppNHp/RAF1 RBD-3xFLAG (52-151) (Homo sapiens, UniProt P01116, G12V); experiment: Raf1-KRAS G12V-GppNHP disruption HTRF assay (Biological Example 1); assay type: binding
T4 construct: Avi-KRAS G12V (1-169)
Method in brief: as §1

[5] = KRAS G12R, GppNHp-loaded, Table 11
[6] = KRAS G12D, GppNHp-loaded, Table 11
[7] = KRAS WT, GppNHp-loaded, Table 11
[8] = Homo sapiens, SW-620, SW620 (KRAS G12V) cells
[9] = KRAS G12V, GppNHp-loaded, Table 11
[10] = KRAS G12R, GppNHp-loaded, class symbols
[11] = KRAS G12D, GppNHp-loaded, class symbols
[12] = KRAS WT, GppNHp-loaded, class symbols
[13] = Homo sapiens, SW-620, SW620 (KRAS G12V) cells, class symbols
[14] = KRAS G12V, GppNHp-loaded, class symbols

T1 sequence (P01116 1-169 isoform P01116-2 G12R): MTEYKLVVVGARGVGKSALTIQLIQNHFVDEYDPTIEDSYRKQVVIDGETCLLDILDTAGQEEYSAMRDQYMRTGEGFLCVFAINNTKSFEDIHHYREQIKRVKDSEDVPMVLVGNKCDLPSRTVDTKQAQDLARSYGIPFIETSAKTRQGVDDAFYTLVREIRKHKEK
T3 sequence (P01116 1-169 isoform P01116-2): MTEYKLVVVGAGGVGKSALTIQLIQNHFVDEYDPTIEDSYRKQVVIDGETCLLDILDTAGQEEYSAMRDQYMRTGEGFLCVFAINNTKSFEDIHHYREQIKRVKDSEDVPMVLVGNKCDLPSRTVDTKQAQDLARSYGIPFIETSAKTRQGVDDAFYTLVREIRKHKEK
T4 sequence (P01116 1-169 isoform P01116-2 G12V): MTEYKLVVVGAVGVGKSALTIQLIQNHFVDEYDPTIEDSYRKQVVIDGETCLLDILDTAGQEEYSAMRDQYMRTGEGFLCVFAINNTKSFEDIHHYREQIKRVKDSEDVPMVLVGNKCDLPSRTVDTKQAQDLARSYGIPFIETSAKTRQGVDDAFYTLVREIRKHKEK
T2 sequence (P01116 1-169 isoform P01116-2 G12D): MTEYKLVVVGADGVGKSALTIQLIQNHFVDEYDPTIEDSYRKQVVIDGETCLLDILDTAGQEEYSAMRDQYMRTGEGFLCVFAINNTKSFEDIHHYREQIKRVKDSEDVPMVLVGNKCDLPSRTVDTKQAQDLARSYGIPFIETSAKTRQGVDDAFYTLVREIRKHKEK

Row | Compound | IC50 (GP2d cells (KRAS G12D); GP2d) [nM] | IC50 (SW620 cells (KRAS G12V); [8]) [nM] | IC50 ([1]; KRAS G12R-GppNHp/RAF1 RBD HTRF) [nM] | IC50 ([2]; KRAS G12D-GppNHp/RAF1 RBD HTRF) [nM] | IC50 ([3]; KRAS WT-GppNHp/RAF1 RBD HTRF) [nM] | IC50 ([4]; KRAS G12V-GppNHp/RAF1 RBD HTRF) [nM] | further results
1 | CC(=O)N1C[C@@H]2CCN(c3nc(OC[C@@]45CCCN4C[C@H](F)C5)nc4c(F)c(-c5ccc(F)c6sc(N)c(C#N)c56)c(C(F)(F)F)cc34)[C@@H]2C1 [Compound 211] | < 100 | 100 to 1000 | – | – | – | – | IC50 [1, 5]: 1000 to 10000 nM; IC50 [2, 6]: 100 to 1000 nM; IC50 [3, 7]: 100 to 1000 nM; IC50 [4, 9]: 1000 to 10000 nM
2 | Cn1ncc2c1CN(c1nc(OC[C@@]34CCCN3C[C@H](F)C4)nc3c(F)c(-c4ccc(F)c5sc(N)c(C#N)c45)c(C(F)(F)F)cc13)CC2 [Compound 352] | 100 to 1000 | < 100 | > 10000 | 1000 to 10000 | > 10000 | > 10000 | –
3 | CN(c1nc(OC[C@@]23CCCN2C[C@H](F)C3)nc2c(F)c(-c3ccc(F)c4sc(N)c(C#N)c34)c(C(F)(F)F)cc12)[C@@H]1C[C@H]2COC(=O)N2C1 [Compound 476] | < 100 | < 100 | 100 to 1000 | 100 to 1000 | 100 to 1000 | 100 to 1000 | –
4 | N#Cc1c(N)sc2c(F)ccc(-c3c(C(F)(F)F)cc4c(N5CC6COC[C@H]6C5)nc(OC[C@@]56CCCN5C[C@H](F)C6)nc4c3F)c12 (stereo partly drawn) [Compound 293] | < 100 | < 100 | 100 to 1000 | 100 to 1000 | 100 to 1000 | 1000 to 10000 | –
5 | CCN(c1nc(OC[C@@]23CCCN2C[C@H](F)C3)nc2c(F)c(-c3ccc(F)c4sc(N)c(C#N)c34)c(C(F)(F)F)cc12)[C@H]1CCN(C(=O)[C@@H](C)OC)C1 (atropisomer, axis not shown) [Compound 570] | – | – | – | – | – | – | IC50 [1, 10]: < 100 nM; IC50 [2, 11]: < 100 nM; IC50 (GP2d cells (KRAS G12D); GP2d, class symbols): < 100 nM; IC50 [3, 12]: < 100 nM; IC50 (SW620 cells (KRAS G12V); [13]): < 100 nM; IC50 [4, 14]: < 100 nM
6 | N#Cc1nnn2c1CN(c1nc(OC[C@@]34CCCN3C[C@H](F)C4)nc3c(F)c(-c4ccc(F)c5sc(N)c(C#N)c45)c(C(F)(F)F)cc13)CC2 [Compound 486] | < 100 | < 100 | 100 to 1000 | 100 to 1000 | 100 to 1000 | 100 to 1000 | –
7 | CCOC1CN(C(=O)N2CC[C@H](N(CC)c3nc(OC[C@@]45CCCN4C[C@H](F)C5)nc4c(F)c(-c5ccc(F)c6sc(N)c(C#N)c56)c(C(F)(F)F)cc34)C2)C1 (atropisomer, axis not shown) [Compound 758] | – | – | – | – | – | – | IC50 [1, 10]: < 100 nM; IC50 [2, 11]: < 100 nM; IC50 (GP2d cells (KRAS G12D); GP2d, class symbols): < 100 nM; IC50 [3, 12]: < 100 nM; IC50 (SW620 cells (KRAS G12V); [13]): < 100 nM; IC50 [4, 14]: < 100 nM
8 | CC1(O)COCCN(c2nc(OC[C@@]34CCCN3C[C@H](F)C4)nc3c(F)c(-c4ccc(F)c5sc(N)c(C#N)c45)c(C(F)(F)F)cc23)C1 (stereo partly drawn) [Compound 244] | < 100 | < 100 | – | – | – | – | IC50 [1, 5]: 100 to 1000 nM; IC50 [2, 6]: 100 to 1000 nM; IC50 [3, 7]: 100 to 1000 nM; IC50 [4, 9]: 100 to 1000 nM
9 | CCN(c1nc(OC[C@@]23CCCN2C[C@H](F)C3)nc2c(F)c(-c3ccc(F)c4sc(N)c(C#N)c34)c(C(F)(F)F)cc12)[C@H]1CCN(C(=O)OC2CC(F)C2)C1 (stereo partly drawn) [Compound 787] | – | – | – | – | – | – | IC50 [1, 10]: < 100 nM; IC50 [2, 11]: < 100 nM; IC50 (GP2d cells (KRAS G12D); class symbols): < 100 nM; IC50 [3, 12]: < 100 nM; IC50 (SW620 cells (KRAS G12V); SW620 (KRAS G12V) cells, class symbols): < 100 nM; IC50 [4, 14]: < 100 nM
10 | N#Cc1c(N)sc2c(F)ccc(-c3c(C(F)(F)F)cc4c(N5CCn6nc(C7CC7)cc6C5)nc(OC[C@@]56CCCN5C[C@H](F)C6)nc4c3F)c12 [Compound 483] | < 100 | < 100 | > 10000 | 1000 to 10000 | > 10000 | > 10000 | –
11 | C[C@@H]1[C@H](N(C)c2nc(OC[C@]34C[C@@H](F)CN3CC3(CC3)C4)nc3c(F)c(-c4ccc(F)c5sc(N)c(C#N)c45)c(C(F)(F)F)cc23)CCN1C(=O)C1CC1 [Compound 564] | < 100 | < 100 | 100 to 1000 | 100 to 1000 | 100 to 1000 | 1000 to 10000 | –

Reference: patent US20260042764A1, “COMPOSITIONS AND METHODS FOR INHIBITION OF KRAS” (TheRas, Inc., priority 2022, published 2026)
